{"source": "patent US20250144067A1", "about": "“PERSONALIZED STARVATION THERAPY FOR CANCER” (Faeth Therapeutics, Inc., priority 2021, published 2025)", "assay_type_in_all_cases": "cell-based, human", "key": {"[1]": {"test_system": "NCI-H292 lung cancer cells", "assay": "FDA drug screening, complete media vs cholesterol-free media with simvastatin (TABLE 2)", "details": "for Difference: complete media minus cholesterol-free media + simvastatin, >0 enhanced anti-cancer activity, about 0 neutral, <0 antagonist"}, "H292 cells [2]": {"test_system": "H292 cells", "assay": "Drug validation in H292 cells, three media conditions", "details": "cholesterol-free medium + simvastatin 40 nM vs complete and cholesterol-free medium", "description": "(§1) A series of experiments were designed to assess the effect of cholesterol depletion and statin treatment on the anti-cancer effect of drugs identified in the FDA drug screens. Cancer cells were grown in media containing cholesterol and cholesterol-free media in the presence or absence of simvastatin. The effect of the drug identified in the FDA drug screens on cancer cell growth was measured.\nOn Day 1, cells were seeded at a density of around 7500 cells/well in a Corning 96-well flat bottom culture plate in complete media containing 10% FBS.\n(§2) On Day 5, spent media was discarded, and wells were stained with a crystal violet staining solution, washed and dried. 100 μL of 10% acetic acid was added to each well to release the crystal violet taken up by the cells. Plates were read using a Biotek Powerwave plate reader to determine the absorbance of the crystal violet released as an indicator of cell growth at a wavelength of 595 nm.\nGrowth curves showing absorbance of crystal violet at 595 nm were plotted from test wells against the logarithmic concentration of the validation drug. FIG. 7A-7C show growth of cancer cell lines in the three media conditions subjected to increasing doses of isavuconazole (FIG. 7A), pitolisant (FIG. 7B), or toremifene (FIG. 7C) from the FDA screen under validation. For each of the drugs being validated, there is a strong ‘left-shift’ in the dose response curve for cells are grown in the cholesterol-free medium+simvastatin."}, "PSN1 cells": {"test_system": "PSN1 cells", "assay": "Drug validation, four media conditions", "description": "as §1\n(§3) […]. Medium 1 was ‘complete medium’ containing all essential nutrients, including cholesterol. Medium 2 was cholesterol-free medium. Medium 3 was cholesterol-free medium supplemented with simvastatin 40 nM. Medium 4 was ‘complete medium’ containing all essential nutrients, including cholesterol, supplemented with simvastatin at the IC30 concentration for each cell line.\nas §2, with “5, cell growth was measured by absorbance or fluorescence. For absorbance growth measurements,” for “5,”, “washed,” for “washed”, “nm. For fluorescence growth measurements, 100 μL of a resazurin solution was added to each well and the plate incubated at 37° C. for four hours. Plates were read using a Biotek Powerwave plate reader to determine the fluorescence of reosurfin as an indicator of cell growth at a wavelength of 590 nm.” for “nm.”\n(§4) Growth curves showing absorbance of crystal violet at 595 nm or fluorescene of reosurfin at 590 nm were plotted from test wells against the logarithmic concentration of the validation drug. FIG. 9A-9C show growth of cancer cell lines in the four media conditions subjected to increasing doses of neticonazole. FIG. 10A-10D show growth of cancer cell lines in the four media conditions subjected to increasing doses of cepharanthine. FIG. 11A-11B show growth of cancer cell lines in the four media conditions subjected to increasing doses of alverine citrate. FIG. 12A-12B show growth of cancer cell lines in the four media conditions subjected to increasing doses of berbamine. FIG. 13A-13C show growth of cancer cell lines in the four media conditions subjected to increasing doses of pitolisant. FIG. 14A-14G show growth of cancer cell lines in the four media conditions subjected to increasing doses of avapritinib. FIG. 15A-15D show growth of cancer cell lines in the four media conditions subjected to increasing doses of toremifene. FIG. 16A-16C show growth of cancer cell lines in the four media conditions subjected to increasing doses of isavuconazole."}, "H292 cells [3]": {"test_system": "H292 cells", "assay": "Drug validation, four media conditions", "details": "cholesterol-free medium+simvastatin compared to the other media conditions", "description": "as §1, §3\nas §2, with “5, cell growth was measured by absorbance or fluorescence. For absorbance growth measurements,” for “5,”, “washed,” for “washed”, “nm. For fluorescence growth measurements, 100 μL of a resazurin solution was added to each well and the plate incubated at 37° C. for four hours. Plates were read using a Biotek Powerwave plate reader to determine the fluorescence of reosurfin as an indicator of cell growth at a wavelength of 590 nm.” for “nm.”\nas §4"}, "PC9 cells": {"test_system": "PC9 cells", "assay": "Drug validation, four media conditions", "details": "cholesterol-free medium+simvastatin compared to the other media conditions", "description": "as §1, §3\nas §2, with “5, cell growth was measured by absorbance or fluorescence. For absorbance growth measurements,” for “5,”, “washed,” for “washed”, “nm. For fluorescence growth measurements, 100 μL of a resazurin solution was added to each well and the plate incubated at 37° C. for four hours. Plates were read using a Biotek Powerwave plate reader to determine the fluorescence of reosurfin as an indicator of cell growth at a wavelength of 590 nm.” for “nm.”\nas §4"}, "[4]": {"test_system": "NCI-H292 lung cancer cells", "assay": "FDA drug screening, complete media vs cholesterol-free media without statin (TABLE 1)", "details": "for Difference: Complete minus Cholesterol-free, greater than 0 enhanced anti-cancer activity, about 0 neutral"}, "HCC827 cells": {"test_system": "HCC827 cells", "assay": "Drug validation, four media conditions", "details": "cholesterol-free and cholesterol-free+simvastatin media conditions", "description": "as §1, §3\nas §2, with “5, cell growth was measured by absorbance or fluorescence. For absorbance growth measurements,” for “5,”, “washed,” for “washed”, “nm. For fluorescence growth measurements, 100 μL of a resazurin solution was added to each well and the plate incubated at 37° C. for four hours. Plates were read using a Biotek Powerwave plate reader to determine the fluorescence of reosurfin as an indicator of cell growth at a wavelength of 590 nm.” for “nm.”\nas §4"}, "SW480 cells": {"test_system": "SW480 cells", "assay": "Drug validation, four media conditions", "details": "cholesterol-free and cholesterol-free+simvastatin media conditions", "description": "as §1, §3\nas §2, with “5, cell growth was measured by absorbance or fluorescence. For absorbance growth measurements,” for “5,”, “washed,” for “washed”, “nm. For fluorescence growth measurements, 100 μL of a resazurin solution was added to each well and the plate incubated at 37° C. for four hours. Plates were read using a Biotek Powerwave plate reader to determine the fluorescence of reosurfin as an indicator of cell growth at a wavelength of 590 nm.” for “nm.”\nas §4"}}, "data": [{"smiles": "C[C@@H](c1nc(-c2ccc(C#N)cc2)cs1)[C@](O)(Cn1cncn1)c1cc(F)ccc1F", "note": "[isavuconazole, reference compound]", "values": [{"measurement": "Cholesterol-free media + simvastatin (0.04 μM)", "setting": "[1]; NCI-H292 cells, FDA drug library screen, cholesterol-free media with simvastatin 0.04 μM", "result": 0.5246}, {"measurement": "Complete Media", "setting": "[1]; NCI-H292 cells, FDA drug library screen", "result": 0.9256}, {"measurement": "Difference", "setting": "[1]", "result": 0.40}, {"measurement": "anti-proliferative effect of the drug (dose response curve shift)", "setting": "H292 cells [2]", "result": "strongly enhanced"}, {"measurement": "basal viability of treated cells", "setting": "PSN1 cells; cholesterol-free medium+simvastatin relative to the other three media conditions", "result": "decreased basal viability"}, {"measurement": "anti-proliferative effect (dose-response curve shift)", "setting": "H292 cells [3]", "result": "strong left-shift"}, {"measurement": "anti-proliferative effect (dose-response curve shift)", "setting": "PC9 cells", "result": "strong left-shift"}, {"measurement": "Difference", "setting": "[4]; below 0 antagonists", "result": "−0.83"}, {"measurement": "Cholesterol-free", "setting": "[4]; NCI-H292 cells in cholesterol-free media without statin", "result": 1.746}, {"measurement": "Complete", "setting": "[4]; NCI-H292 cells in complete media", "result": 0.9126}]}, {"smiles": "Clc1ccc(CCCOCCCN2CCCCC2)cc1", "note": "[pitolisant]", "values": [{"measurement": "anti-proliferative effect of the drug (dose response curve shift)", "setting": "H292 cells [2]", "result": "strongly enhanced"}, {"measurement": "activity (dose-response curve shift) with lack of cholesterol", "setting": "HCC827 cells", "result": "enhanced"}, {"measurement": "activity (dose-response curve shift) with lack of cholesterol", "setting": "PSN1 cells; cholesterol-free and cholesterol-free+simvastatin media conditions", "result": "enhanced"}, {"measurement": "activity (dose-response curve shift) with lack of cholesterol", "setting": "SW480 cells", "result": "enhanced"}]}, {"smiles": "CCCCCOc1ccccc1/C(=C\\SC)n1ccnc1", "note": "[neticonazole, reference compound]", "values": [{"measurement": "Complete Media", "setting": "[1]; NCI-H292 cells, FDA drug library screen, listed as Neticonazole", "result": 1.262}, {"measurement": "Difference", "setting": "[1]; listed as Neticonazole", "result": 0.90}, {"measurement": "anti-proliferative effect (dose-response curve shift)", "setting": "PSN1 cells; cholesterol-free medium+simvastatin compared to the other media conditions", "result": "strongly enhanced"}, {"measurement": "anti-proliferative effect (dose-response curve shift)", "setting": "H292 cells [3]", "result": "strongly enhanced"}, {"measurement": "anti-proliferative effect (dose-response curve shift)", "setting": "PC9 cells", "result": "strongly enhanced"}, {"measurement": "Difference", "setting": "[4]; below 0 antagonist", "result": "−0.16"}, {"measurement": "Cholesterol-free", "setting": "[4]; NCI-H292 cells, FDA drug library screen, cholesterol-free media without statin", "result": 0.9493}, {"measurement": "Complete", "setting": "[4]; NCI-H292 cells, FDA drug library screen, complete media", "result": 0.7904}]}]}
